# Source: patent US11879021B2, “Cyclic peptides and uses thereof” (UNIVERSITÉ DE MONTRÉAL, priority 2016, dated 2024)
# System: mice exposed to intense blue light
# Format: in vivo
# Details: 289 nmol/kg daily s.c. for 7 days
# Source text: The acute model of light-induced retinal degeneration uses short exposure to blue light to induce photoreceptor cell death leading to loss of vision (Grimm and Remé, Methods Mol Biol. 2013; 935: 87-97). Mice were exposed mice to intense blue light (wavelength=425 nm; exposure intensity=6000 lux) for five (5) successive days. The treatment was started one day after start of blue-light exposure (D1), for seven (7) successive days of daily subcutaneous (s.c) administration at 289 nmol/kg of test item solutions (MPE-001 and MPE-298). On Day 7, mice were dark adapted for electroretinography (ERG) analysis. […]
# ERGs were recorded from wildtype and age matched knockout mice on Espion® ERG Diagnosys machine and a ColorDome® Ganzfeld stimulator (Diagnosys LLC, Lowell, MA). […]
# Flash ERG were measured using corneal DTL Plus electrodes (Diagnosys® LLC). […] Scotopic responses were simultaneously recorded from both eyes of the dark-adapted animals at the following increasing light intensities: 0.5, 1.0, 3.0 and 10.0 cd-s/m^2. […] The amplitude and latency of major ERG components were measured with the Espion® software (Diagnosys® LLC). […] The ERG a-wave amplitudes were measured from the baseline to the primary negative peak and the b-wave was measured from the trough of the a-wave to the maximum of the […] positive peak. […]
structure (smiles),measurement,setting,value
C=CCN1CC#CCN(NC(=O)[C@H](C)N)C(=O)N[C@H](Cc2c[nH]c3ccccc23)C(=O)N[C@@H](C)C(=O)N[C@@H](Cc2c[nH]c3ccccc23)C(=O)N[C@H](Cc2ccccc2)C(=O)N[C@H](C(N)=O)CCCC1 [MPE-298],"subretinal inflammation (immune cell infiltration, notably IL-1β-expressing immune cells, in the retina)",F4/80-positive cells in RPE flatmounts,reduce
same,outer nuclear layer (ONL) thickness,mice exposed to blue light 6000 lux,preserved
